From patent US20090163406A1, “COMPOSITIONS AND METHODS FOR DIAGNOSING AND TREATING BRAIN CANCER AND IDENTIFYING NEURAL STEM CELLS” (THE REGENTS OF THE UNIVERSITY OF CALIFORNIA, priority 2004, published 2009)
“Also recorded” adds a separate entry of the source.

What was measured:
[1] = system: neural progenitors cultured from E12 mouse telencephalic germinal zones; assay: Cell number and cell cycle of attached E12 telencephalic neural progenitors in bFGF
[2] = system: primary cerebellar granule cells precursors (CGPs); assay: Cell cycle analysis and cell counts in cultured cerebellar granule cell precursors; assay type: cell-based, mouse; conditions: for fraction of cells in S-phase: CGP with mitogen, 50 uM, 24 hours, flow cytometric DNA content
Procedure: FIG. 9F: described below. […] Yellow circle indicates normally cycling cells.
Culture of Cerebellar Granule Cell Precursors: Cerebella were harvested from P6-P8 CD1 mouse pups and digested in Papain with DNase, and dissociated in PBS BSA with fire polished pipettes followed by a cell strainer. Granule cell precursors were then separated on a 35%/65% percoll step gradient at 1500 g for 12 minutes as previously described (Wechsler-Reya, supra (1999)). Cells were either transfected at this point or plated at 250K cells/well onto Poly-L-Lysine coated glass coverslips in 24 well plates in 330 uls of Neurobasal Media containing 2% B27 supplement, 1 mM sodium pyruvate, 2 mM glutamine, and 1% penicillin/streptomycin, supplemented with 2.5 ug/ml mouse recombinant Sonic Hedge Hog (R&D systems 461-5H-025) as noted in the text, above.
Cell counts: For immunocytochemistry, all cells in 10 random 40× fields were counted. For the stem cell ablation experiments we used stereo investigator to count all PBK/TOPK cells in the SEZ ventral to the anterior horn at the level of the anterior commissure bilaterally in 3 replicate animals. T-tests were performed in Microsoft Excel.

Daoy cells = assay: Daoy medulloblastoma cell growth (total cell number); assay type: cell-based, human; conditions: cyclopamine alone or combined with MELK siRNA
Procedure: Transient Transfection. […] For transfection of plasmid vectors, the cells were incubated with reagents for 6 hours with the primary progenitor cells, and for 24 hours with N2a cells. […] Incubation with siRNA complex was 6 hours with primary cells and 24 hours with cell lines.
We then examined whether the effect of MELK siRNA is for cell survival or cell proliferation.
Propium iodide-labeled tumor populations were measured for cell death assay after treatment of siRNA for two days (e).

[3] = system: dividing GFAP positive cells; assay: Ganciclovir ablation in GFAP promoter HSV-TK transgenic mice, SEZ immunohistochemistry; assay type: in vivo, mouse; conditions: 21 days ganciclovir, vs non-transgenic controls
Description: PBK/TOPK positive cells are mitotically active progenitors in vivo: The expression pattern in vitro as a mitotically active kinase, coupled with in vivo data, provided evidence that PBK/TOPK was expressed in several mitotically active progenitor cell populations in the central nervous system, but not in quiescent, slower cycling putative stem cells. To more conclusively establish PBK/TOPK expression in stem and progenitor cells in vivo, we examined PBK/TOPK in transgenic mice expressing the herpes simplex virus thymidine kinase gene (HSV-TK) under control of the GFAP promoter (see, e.g., Bush, T. G., et al., Neuron (1999) 23:297-308; Garcia, supra (2004)). Since HSV-TK phosphorylates the drug ganciclovir and phosphorylated ganciclovir kills cells at mitosis, when these mice are given ganciclovir, all dividing GFAP positive cells are killed. […] Three transgenic mice were treated for 21 days with ganciclovir followed by BrdU injections for two days, and then processed for immunohistochemistry. […] This finding provided direct in vivo evidence that PBK/TOPK positive cells arise from proliferating GFAP positive cells, consistent with PBK/TOPK being expressed exclusively by proliferating progenitor cells in the adult brain. […]
Cell counts: For immunocytochemistry, all cells in 10 random 40× fields were counted. […]

[4] = CGP, twenty-four hours of P38 inhibition

`C[S+]([O-])c1ccc(-c2nc(-c3ccncc3)c(-c3ccc(F)cc3)[nH]2)cc1` (centres unmarked) [SB203580] was tested, and the “cycling cells assessed by flow cytometry” value ([1]; in the presence of bFGF) was “decrease in cycling cells”, the DNA aneuploidy ([1]; long exposures or high doses, 48 hours at highest dose) was “resulted in DNA aneuploidy; also recorded: accumulation of DNA-aneuploid cells” and the cell number ([1]; varying doses, in the presence of bFGF) was “dose dependant decrease in proliferation; also recorded: dose dependant decrease in cell number”. For the same molecule, the “fraction of cells in S-phase” value [2] was “reduces fraction of S-Phase cells; also recorded: dramatic decrease in the fraction of cells in S-phase”, the “fraction of cells in S-phase” value ([2]; listed as sb203580) was “significant decrease in the number of cells re-entering S-phase” and the “cell number in the absence of mitogen” value ([2]; CGP without mitogen treatment) was “no impact on cell number”. The “number of NeuN positive cells” value [2, 4] was “without significantly impacting; also recorded: without any impact”, the “number of PBK/TOPK positive cells” value [2, 4] was “reduces PBK/TOPK positive cells; also recorded: reduction in the number of the PBK/TOPK positive cells” and the “total number of cells” value ([2]; proliferating neuronal progenitors) was “decrease in the total number of cells”.

With `CC1=C2C[C@H]3[C@@H](CC=C4C[C@@H](O)CC[C@@]43C)[C@@H]2CC[C@]12O[C@@H]1C[C@H](C)CN[C@H]1[C@H]2C` [cyclopamine] the “Daoy cell growth / proliferation with shh-Gli1 pathway inhibitor” value (Daoy cells) was “inhibition of cell growth”.

In the case of `Nc1nc(O)c2ncn(COC(CO)CO)c2n1` [ganciclovir], the “Dcx positive cells in SEZ” value [3] is reported as “complete ablation”.
